Laboratory results from EP3818828A1 (priority 2019, dated 2021).
Converted amounts (≈) assume the structure as drawn. Read-outs that look alike come from different tables or passages of the source.

Key:
Format in all cases: cell-based
[1] = tested on: Pyricularia grisea; assay: microbe, parasite or virus in culture
[2] = tested on: Phytophthora infestans; details: Phytophthora infestas; 1 mg/mL
[3] = tested on: Fusarium graminearum; assay: microbe, parasite or virus in culture
[4] = tested on: Phytophthora infestans; assay: microbe, parasite or virus in culture; details: 1 mg/mL
[5] = tested on: F. graminearum; assay: microbe, parasite or virus in culture
[6] = tested on: Fusarium graminearum; assay: microbe, parasite or virus in culture; remark: listed apart in the source
[7] = tested on: Botrytis cinerea; assay: Toxicity determination (EC50) on mycelial growth, growth rate method
Procedure: (§1) The inhibition of samples for testing on the mycelial growth of plant pathogenic fungi for testing is determined with a growth rate method. 3-(3',4'-methylenedioxy phenyl)-N-n-propyl acrylamide, 3-(3',4'-methylenedioxy phenyl)-piperidine acrylate and five control agents are dissolved with dimethyl sulfoxide (DMSO), then formulated at 5-7 concentrations of different gradients for test following the trial test results, with the same concentration of DMSO as the control solvent, each treatment in triplicate. Fungal cakes with a diameter of 4 mm are taken from the edge of the colony, inoculated into the center of a PDA plate containing different agents of different concentrations and the DMSO control, with one piece of fungal cake inoculated in each plate (with a diameter of […]), and incubated in a constant temperature incubator at a temperature of 22±1.5°C. 7 days later (10-20 days may be needed for some pathogenic fungi), the diameter of the colony is measured with a cross over method according to the mycelial growth profile of the control pathogenic fungi, then the inhibition rate of mycelial growth is calculated.
(§2) 3-(3',4'-methylenedioxy phenyl)-piperidine acrylate, the control agents 96.5% of chlorothalonil technical and 97.0% of procymidone technical. Agents for testing and the control agents chlorothalonil and procymidone are treated at 5-8 concentrations of different gradients on the basis of preliminary tests to ensure that the inhibition rates for treatments at all the concentrations are between 10% and 90%.
(§3) For specific determination methods, with reference to Embodiment 1. The concentration of active ingredients in the culture medium is used as the testing concentration to calculate the toxic regression equation (Y=bx+a) and the median inhibition concentration EC50, 95% confidence limit, and relative toxicity. Relative toxicity (compared to chlorothalonil) = EC50 of chlorothalonil / EC50 of 3-(3',4'-methylenedioxy phenyl)-piperidine acrylate, and relative toxicity (compared to procymidone) = EC50 of procymidone / EC50 of 3-(3',4'-methylenedioxy phenyl)-piperidine acrylate.

[8] = tested on: Colletotrichum capsici; assay: as above
Procedure: as §1, §2, §3

[9] = tested on: Sclerotinia sclerotiorum; assay: as above
Procedure: as §1, §2, §3

[10] = tested on: Valsa mali; assay: as above
Procedure: as §1, §2, §3

[11] = tested on: Exserohilum turcicum; assay: as above
Procedure: as §1, §2, §3

[12] = tested on: F. graminearum; assay: microbe, parasite or virus in culture; remark: listed apart in the source
[13] = tested on: Phytophthora infestans; assay: microbe, parasite or virus in culture
[14] = tested on: Botrytis cinerea; assay: Ex vivo mycelial growth inhibition, growth rate method; details: 1 mg/mL
Source text: (§4) 3-(3',4'-methylenedioxy phenyl)-N-n-propyl acrylamide (at a purity of 99%), 3-(3',4'-methylenedioxy phenyl)-piperidine acrylate (at a purity of 99%), the control agents, 96.5% of chlorothalonil technical (non-systemic broad-spectrum fungicide), 97.2% of carbendazim technical (systemic broad-spectrum fungicide), 97.0% of procymidone technical (systemic fungicide), 96.0% of dimethomorphtechnical ((E,Z)-4-[3-(4-chlorphenyl)3-(3,4-dimethoxy phenyl)acryloyl]morpholine, systemic fungicide), 97.0% of azoxystrobin technical (systemic broad-spectrum fungicide).
as §1
(§5) The computational formula is as below: the inhibition rate of mycelial growth (%) = [(the diameter of the control colony - the diameter of the treated colony)/the diameter of the control colony] × 100.
(§6) The inhibition results of each agent at a concentration of 1 mg/mL on the mycelial growth of plant pathogenic fungi are shown in Tables 1 and 2.

[15] = tested on: Botryosphaeriana berengeriana; assay: as above; details: 1 mg/mL
Source text: as §4, §1, §5, §6

[16] = tested on: Coniella diplodiella; assay: as above; details: 1 mg/mL
Source text: as §4, §1, §5, §6

[17] = tested on: Colletotrichum capsici; assay: as above; details: 1 mg/mL
Source text: as §4, §1, §5, §6

[18] = tested on: F. oxysporum f. sp. vasinfectum; assay: as above; details: 1 mg/mL
Source text: as §4, §1, §5, §6

[19] = tested on: Pythium aphanidermatum; assay: as above; details: 1 mg/mL
Source text: as §4, §1, §5, §6

[20] = tested on: F. verticillioide; assay: as above; details: 1 mg/mL
Source text: as §4, §1, §5, §6

[21] = tested on: Sclerotinia sclerotiorum; assay: as above; details: 1 mg/mL
Source text: as §4, §1, §5, §6

[22] = tested on: Botryosphaeria berengeriana; assay: as above; details: 1 mg/mL
Source text: as §4, §1, §5, §6

[23] = tested on: Thanatephorus cucumeris; assay: as above; details: 1 mg/mL
Source text: as §4, §1, §5, §6

[24] = tested on: Gaeumannomyces graminis var. graminis and G. graminis var. tritici; assay: as above; details: 1 mg/mL
Source text: as §4, §1, §5, §6

[25] = tested on: Rhizoctonia solani; assay: as above; details: Rhizoctonia solani; 1 mg/mL
Source text: as §4, §1, §5, §6

[26] = tested on: F. oxysporum f. sp. lini; assay: as above; details: 1 mg/mL
Source text: as §4, §1, §5, §6

[27] = tested on: Valsa mali; assay: as above; details: 1 mg/mL
Source text: as §4, §1, §5, §6

[28] = tested on: C. gossypii; assay: as above; details: 1 mg/mL
Source text: as §4, §1, §5, §6

[29] = tested on: Exserohilum turcicum; assay: as above; details: 1 mg/mL
Source text: as §4, §1, §5, §6

[30] = tested on: Mycosphaerlla melonis; assay: as above; details: 1 mg/mL
Source text: as §4, §1, §5, §6

[31] = tested on: Phytophthora capsici; assay: as above; details: Phytophthora capsici; 1 mg/mL
Source text: as §4, §1, §5, §6

[32] = tested on: Magnaporthe grisea; assay: microbe, parasite or virus in culture
[33] = EC50 of chlorothalonil / EC50 of agent
[34] = EC50 of procymidone / EC50 of agent
[35] = median inhibition concentration

## N#Cc1c(Cl)c(Cl)c(Cl)c(C#N)c1Cl [Chlorothalonil, chlorothalonil]
[1]; 1 mg/mL
  Average Diameter of the Colony: 1.63 cm
[1]; read-out: Inhibition Rate
  inhibition at 1000 µg/mL: 81.9%
[2]
  Average Diameter of the Colony: 1.78 cm
[3]; 1 mg/mL
  Average Diameter of the Colony: 0.71 cm
[3]; read-out: Inhibition Rate
  inhibition at 1000 µg/mL: 86.7%
[4]
  Average Diameter of the Colony: 0.20 cm
[5]; [33]
  Relative Toxicity (Compared to Chlorothalonil): 1.00
[5]; [34]
  Relative Toxicity (Compared to Procymidone): 3.75
[5]; Fusarium graminearum, median inhibition concentration
  EC50: 227 mg/L (≈ 853 µM)
[6]; [33]
  Relative Toxicity (Compared to Chlorothalonil): 1.00
[6]; [34]
  Relative Toxicity (Compared to Procymidone): 0.31
[6]; [35]
  EC50: 469 mg/L (≈ 1760 µM)
[7]; [33]
  Relative Toxicity (Compared to Chlorothalonil): 1.00
[7]; [34]
  Relative Toxicity (Compared to Procymidone): 0.45
[7]; [35]
  EC50: 177 mg/L (≈ 665 µM)
[8]; Colletotrichum truncatum, median inhibition concentration, read-out: EC50
  EC50: 404 mg/L (≈ 1520 µM)
[8]; [33]
  Relative Toxicity (Compared to Chlorothalonil): 1.00
[8]; [34]
  Relative Toxicity (Compared to Procymidone): 1.28
[9]; [33]
  Relative Toxicity (Compared to Chlorothalonil): 1.00
[9]; [34]
  Relative Toxicity (Compared to Procymidone): 1.13
[9]; [35]
  EC50: 62.7 mg/L (≈ 236 µM)
[10]; Cytospora mali, median inhibition concentration, read-out: EC50
  EC50: 418 mg/L (≈ 1570 µM)
[10]; [33]
  Relative Toxicity (Compared to Chlorothalonil): 1.00
[10]; [34]
  Relative Toxicity (Compared to Procymidone): 1.02
[11]; [33]
  Relative Toxicity (Compared to Chlorothalonil): 1.00
[11]; [34]
  Relative Toxicity (Compared to Procymidone): 0.26
[11]; median inhibition concentration, read-out: EC50
  EC50: 411 mg/L (≈ 1550 µM)
[12]; F. graminearum, 1 mg/mL
  Average Diameter of the Colony: 1.92 cm
[12]; Fusarium graminearum, read-out: Inhibition Rate
  inhibition at 1000 µg/mL: 77.7%
[13]; [33]
  Relative Toxicity (Compared to Chlorothalonil): 1.00
[13]; [34]
  Relative Toxicity (Compared to Procymidone): 6.78
[13]; [35]
  EC50: 115 mg/L (≈ 431 µM)
[14]
  Average Diameter of the Colony: 1.16 cm
  inhibition at 1000 µg/mL: 84.5%
[15]
  Average Diameter of the Colony: 0.94 cm
  inhibition at 1000 µg/mL: 83.5%
[16]
  Average Diameter of the Colony: 0.00 cm
  inhibition at 1000 µg/mL: 100%
[17]
  Average Diameter of the Colony: 1.95 cm
[17]; Colletotrichum truncatum
  inhibition at 1000 µg/mL: 71.2%
[18]
  Average Diameter of the Colony: 2.45 cm
[18]; Fusarium oxysporum
  inhibition at 1000 µg/mL: 66.2%
[19]
  Average Diameter of the Colony: 1.14 cm
  inhibition at 1000 µg/mL: 83%
[20]
  Average Diameter of the Colony: 0.87 cm
  inhibition at 1000 µg/mL: 74.3%
[21]
  Average Diameter of the Colony: 0.00 cm
  inhibition at 1000 µg/mL: 100%
[22]
  Average Diameter of the Colony: 2.11 cm
  inhibition at 1000 µg/mL: 69%
[23]
  Average Diameter of the Colony: 1.05 cm
  inhibition at 1000 µg/mL: 87.8%
[24]
  Average Diameter of the Colony: 2.51 cm
  inhibition at 1000 µg/mL: 64.9%
[25]
  Average Diameter of the Colony: 0.00 cm
  inhibition at 1000 µg/mL: 100%
[26]
  Average Diameter of the Colony: 3.73 cm
[26]; Fusarium oxysporum
  inhibition at 1000 µg/mL: 58.6%
[27]
  Average Diameter of the Colony: 1.65 cm
[27]; Cytospora mali
  inhibition at 1000 µg/mL: 79.1%
[28]; C. gossypii
  Average Diameter of the Colony: 1.45 cm
[28]; Colletotrichum gossypii, C. cossypii, read-out: Inhibition Rate
  inhibition at 1000 µg/mL: 73.2%
[29]
  Average Diameter of the Colony: 1.41 cm
  inhibition at 1000 µg/mL: 77.3%
[30]
  Average Diameter of the Colony: 2.16 cm
  inhibition at 1000 µg/mL: 74.9%
[31]
  Average Diameter of the Colony: 0.91 cm
  inhibition at 1000 µg/mL: 82.8%
[32]; [33]
  Relative Toxicity (Compared to Chlorothalonil): 1.00
[32]; [34]
  Relative Toxicity (Compared to Procymidone): 0.71
[32]; Pyricularia oryzae, median inhibition concentration
  EC50: 436 mg/L (≈ 1640 µM)
